Where a name gives a salt, the structure may show the parent alone. Read-outs that look alike come from different tables or passages of the source.

Holding throughout (type): in vivo
One experiment relates to β-Adrenergic. In words: β-Adrenergic blocking action: antagonism of isoproterenol induced tachycardia in rats. The settings on record: reserpine pretreated, pentobarbital anesthetized rats, isoproterenol 0.1 μg/Kg iv.; for β-blocking (Rat) ED50: i.v.; for ED50: Rattus norvegicus, iv. The protocol:
Bilateral vagotomy was performed at the neck. The effects of the test samples to antagonize the isoproterenol (0.1 μg/Kg iv.) induced tachycardia were measured and the results were shown in Table I.

The subject of the next experiment is α-Adrenergic. Description: α-Adrenergic blocking action: antagonism of hypertensive response to phenylephrine in anesthetized rats. The note with it: for α-blocking (Rat) ED50: i.v.; for ED50: Rattus norvegicus, iv, read-out: α-blocking (Rat) ED50. The protocol:
A. α-Adrenergic blocking action: (a) The blood pressure was measured in rats anesthetized with urethane and treated with pentolinium.

Experiment [1] deals with spontaneously hypertensive rats. In words: Antihypertensive effects in spontaneously hypertensive rats, oral administration. The settings on record: at 10 mg/Kg p.o., mean ± S.E. of 5 to 10 animals, measured indirectly from the tail. The protocol: B. Antihypertensive effects in spontaneously hypertensive rats: Oral administration: The systolic blood pressure was measured indirectly from the tail using a programmed electro-sphygmanometer (Nacro Bio-Systems Inc., PE-300) on spontaneously hypertensive rats having a systolic blood pressure of higher than 150 mmHg, the result being shown in Table II.

Where [2] appears, read: urethane anesthetized, pentolinium treated rats, phenylephrine 10 μg/Kg i.v., hydrochloride.
Where [3] appears, read: urethane anesthetized, pentolinium treated rats, phenylephrine 10 μg/Kg i.v.

With `COc1ccccc1CCC(C)NCC(O)c1ccc(C)c(S(N)(=O)=O)c1.Cl` (stereo not drawn) [36(i2), 5-{1-hydroxy-2-[3-(2-methoxyphenyl)-1-methylpropylamino]ethyl}-2-methylbenzenesulfonamide hydrochloride], in the experiment with β-Adrenergic (hydrochloride), the “β-blocking (Rat) ED50” value came out at 0.41 mg/kg. Moreover, in the experiment with α-Adrenergic (setting [2]), the “α-blocking (Rat) ED50” value is 0.093 mg/kg. Moreover, the “antihypertensive effect: change in systolic blood pressure” value (“antihypertensive effect: change” for short) in experiment [1] (hydrochloride, 10 mg/kg) was -33 ± 5.7 mmHg.

Regarding `Cc1ccc(C(O)CNC(C)COc2ccccc2O)cc1S(N)(=O)=O.Cl` (stereo not drawn) [Example 41, 5-{1-Hydroxy-2-[2-(2-hydroxyphenoxy)-1-methylethylamino]-ethyl}-2-methylbenzenesulfonamide hydrochloride], the figures for the ED50 in the experiment on β-Adrenergic and with α-Adrenergic (setting [3]) were 0.044 mg/kg and 0.66 mg/kg, respectively. Further, the “antihypertensive effect: change” value in experiment [1] is listed as -30 ± 4.9 mmHg.

Regarding `CCOc1ccccc1OCCNCC(O)c1ccc(OC)c(S(N)(=O)=O)c1.Cl` (stereo not drawn) [Example 61, 5-{1-Hydroxy-2-[2-(2-ethoxyphenoxy)ethylamino]ethyl}-2-methoxybenzenesulfonamide hydrochloride], the “antihypertensive effect: change” value in experiment [1] was -54 ± 5.4 mmHg.

Regarding `COc1ccc(C(O)CNC(C)C2COc3ccccc3O2)cc1S(N)(=O)=O` (stereo not drawn) [72(i1'), 5-{1-hydroxy-2-[1-(1,4-benzodioxan-2-yl)ethylamino]ethyl}-2-methoxybenzenesulfonamide hydrochloride (i1 ')], the “antihypertensive effect: change” value in experiment [1] is -30 ± 4.3 mmHg.

For `COc1cc(C)ccc1OCCNCC(O)c1ccc(C)c(S(N)(=O)=O)c1.Cl` (stereo not drawn) [Example 46, 5-{1-Hydroxy-2-[2-(2-methoxy-4-methylphenoxy)ethylamino]-ethyl}-2-methylbenzenesulfonamide hydrochloride], in experiment [1], the “antihypertensive effect: change” value was -20 ± 4.5 mmHg.

In the case of `Cc1ccc(C(O)CNCCOc2ccccc2CO)cc1S(N)(=O)=O` (stereo not drawn) [Example 15, 5-{1-Hydroxy-2-[2-(2-hydroxymethylphenoxy)ethylamino]-ethyl}-2-methylbenzenesulfonamide], the ED50 in the experiment with β-Adrenergic was 0.15 mg/kg; in the experiment on α-Adrenergic (setting [3]) it was 0.13 mg/kg. Moreover, the “antihypertensive effect: change” value in experiment [1] is on record as -11 ± 4.3 mmHg.

`COc1ccccc1OCC(C)NCC(O)c1ccc(C)c(S(N)(=O)=O)c1` (stereo not drawn) [69(i1), 5-{1-hydroxy-2-[2-(2-methoxyphenoxy)-1-methylethylamino]ethyl}-2-methylbenzenesulfonamide]: the “β-blocking (Rat) ED50” value in the experiment with β-Adrenergic was 0.057 mg/kg. In addition, the “α-blocking (Rat) ED50” value in the experiment on α-Adrenergic (setting [3]) came out at 0.24 mg/kg. For the same compound, in experiment [1] (10 mg/kg), the “antihypertensive effect: change” value is recorded as -28 ± 7.7 mmHg.

Regarding `CCOc1ccccc1OCCNCC(O)c1ccc(C)c(S(N)(=O)=O)c1.Cl` (stereo not drawn) [Example 60, 5-{1-Hydroxy-2-[2-(2-ethoxyphenoxy)ethylamino]ethyl}-2-methylbenzenesulfonamide hydrochloride], the “antihypertensive effect: change” value in experiment [1] is given as -31 ± 2.8 mmHg.

`COc1ccccc1CCC(C)NCC(O)c1ccc(C)c(S(N)(=O)=O)c1.Cl` (stereo not drawn) [36(i1), 5-{1-hydroxy-2-[3-(2-methoxyphenyl)-1-methylpropylamino]ethyl}-2-methylbenzenesulfonamide hydrochloride]: in the experiment on β-Adrenergic (hydrochloride), the “β-blocking (Rat) ED50” value was determined as 0.071 mg/kg. The “α-blocking (Rat) ED50” value in the experiment on α-Adrenergic (setting [2]) turned out to be 1.2 mg/kg. Also, in experiment [1] (hydrochloride, 10 mg/kg), the “antihypertensive effect: change” value is listed as -18 ± 6.1 mmHg.

For the compound `COc1ccccc1OCCNCC(O)c1ccc(OC)c(S(N)(=O)=O)c1.Cl` (stereo not drawn) [Example 48, 5-{1-Hydroxy-2-[2-(2-methoxyphenoxy)ethylamino]ethyl}-2-methoxybenzenesulfonamide hydrochloride], the “antihypertensive effect: change” value in experiment [1] is recorded as -49 ± 4.9 mmHg.

Consider `COc1cc(C(O)CNC(C)CCc2ccccc2)cc(S(N)(=O)=O)c1.Cl` (stereo not drawn) [Example 30, 3-[1-Hydroxy-2-(1-methyl-3-phenylpropylamino)ethyl]-5-methoxybenzenesulfonamide hydrochloride], for which the values for the ED50 in the experiment with β-Adrenergic and in the experiment on α-Adrenergic (setting [3]) were 0.052 mg/kg and 1.8 mg/kg, respectively.

As to `COc1cc(O)ccc1OCCNCC(O)c1ccc(C)c(S(N)(=O)=O)c1` (stereo not drawn) [Example 13, 5-{1-Hydroxy-2-[2-(4-hydroxy-2-methoxyphenoxy)ethylamino]ethyl}-2-methylbenzenesulfonamide], the ED50 was 0.014 mg/kg in the experiment on β-Adrenergic and 0.23 mg/kg with α-Adrenergic (setting [3]).

In the case of `COc1ccccc1OCC(C)(C)NCC(O)c1ccc(C)c(S(N)(=O)=O)c1` (stereo not drawn) [Example 9], the results for the ED50 with β-Adrenergic and with α-Adrenergic (setting [3]) were 0.26 mg/kg and 0.89 mg/kg, respectively. Moreover, the “antihypertensive effect: change” value in experiment [1] is reported as -25 ± 4.2 mmHg.

With `COc1ccccc1OCC(C)NCC(O)c1ccc(OC)c(S(N)(=O)=O)c1.Cl` (stereo not drawn) [Example 34, 5-{1-Hydroxy-2-[2-(2-methoxyphenoxy)-1-methylethylamino]-ethyl}-2-methoxybenzenesulfonamide hydrochloride], the ED50 amounted to 0.28 mg/kg in the experiment on β-Adrenergic and 0.068 mg/kg with α-Adrenergic (setting [3]). In experiment [1], the “antihypertensive effect: change” value is -20 ± 4.3 mmHg.

As for `COc1ccccc1OCC(C)NCC(O)c1ccc(O)c(S(N)(=O)=O)c1.Cl` (stereo not drawn) [Example 43, 2-Hydroxy-5-{1-hydroxy-2-[2-(2-methoxyphenoxy)-1-methylethylamino]ethyl}benzenesulfonamide hydrochloride], the results for the ED50 with β-Adrenergic and in the experiment on α-Adrenergic (setting [3]) were 0.53 mg/kg and 0.0091 mg/kg, respectively. Further, the “antihypertensive effect: change” value in experiment [1] is listed as -33 ± 6.9 mmHg.

With `Cc1ccc(C(O)CNCCOc2ccc(O)cc2)cc1S(N)(=O)=O.Cl` (stereo not drawn) [Example 45, 5-{1-Hydroxy-2-[2-(4-hydroxyphenoxy)ethylamino]ethyl}-2-methylbenzenesulfonamide hydrochloride], the ED50 with β-Adrenergic was determined as 0.013 mg/kg; in the experiment with α-Adrenergic (setting [3]), 0.86 mg/kg.

`CC(NCC(O)c1ccc(O)c(S(N)(=O)=O)c1)C1COc2ccccc2O1` (stereo not drawn) [70(i1'), 2-hydroxy-5-{1-hydroxy-2-[1-(1,4-benzodioxan-2-yl)ethylamino]ethyl}benzenesulfonamide]: the “antihypertensive effect: change” value in experiment [1] is -27 ± 6.1 mmHg.

In the case of `COc1ccccc1CCC(C)NCC(O)c1ccc(C)c(S(N)(=O)=O)c1.Cl` (stereo not drawn) [36(i1 + i2), 5-{1-Hydroxy-2-[3-(2-methoxyphenyl)-1-methylpropylamino]-ethyl}-2-methylbenzenesulfonamide hydrochloride], the “β-blocking (Rat) ED50” value with β-Adrenergic (hydrochloride) came out at 0.095 mg/kg. For the same compound, the “α-blocking (Rat) ED50” value in the experiment on α-Adrenergic (setting [2]) was determined as 0.43 mg/kg. Also, the “antihypertensive effect: change” value in experiment [1] (hydrochloride, 10 mg/kg) is reported as -40 ± 6.6 mmHg.

Turning to `CCOc1ccccc1OCCNCC(O)c1ccc(O)c(S(N)(=O)=O)c1.Cl` (stereo not drawn) [Example 62, 2-Hydroxy-5-{1-hydroxy-2-[2-(2-ethoxyphenoxy)ethylamino]-ethyl}benzenesulfonamide hydrochloride], the “antihypertensive effect: change” value in experiment [1] is -47 ± 6.6 mmHg.

Regarding `COc1cc(CO)ccc1OCCNCC(O)c1ccc(C)c(S(N)(=O)=O)c1` (stereo not drawn) [Example 50], the ED50 in the experiment on β-Adrenergic stood at 0.049 mg/kg; in the experiment on α-Adrenergic (setting [3]) it was 0.3 mg/kg.

With `CCOc1cc(CO)ccc1OCCNCC(O)c1ccc(C)c(S(N)(=O)=O)c1` (stereo not drawn) [Example 52, 5-{1-Hydroxy-2-[2-(2-ethoxy-4-hydroxymethylphenoxy)ethylamino]ethyl}-2-methylbenzenesulfonamide], the ED50 with β-Adrenergic turned out to be 0.022 mg/kg; with α-Adrenergic (setting [3]), 1.1 mg/kg.

Take `CC(CCc1ccccc1)NCC(O)c1ccc(O)c(C(N)=O)c1` (stereo not drawn) [Labetalol, 5-[1-hydroxy-2-(1-methyl-3-phenyl-propyl)aminoethyl]salicylamide, reference compound]: the ED50 in the experiment with α-Adrenergic stood at 1.1 mg/kg. For the same compound, the “antihypertensive effect: change” value in experiment [1] is -10 ± 3.6 mmHg.

As to `CC(CCc1ccccc1)NCC(O)c1ccc(N)c(S(N)(=O)=O)c1` (stereo not drawn) [Example 64, 2-Amino-5-[1-hydroxy-2-(1-methyl-3-phenylpropylamino)ethyl]benzenesulfonamide], the ED50 in the experiment with β-Adrenergic came to 0.12 mg/kg; in the experiment on α-Adrenergic (setting [3]), 0.2 mg/kg.

On to `Cc1ccc(C(O)CNCCOc2ccccc2O)cc1S(N)(=O)=O` (stereo not drawn) [Example 63, 5-{1-Hydroxy-2-[2-(2-hydroxyphenoxy)ethylamino]ethyl}-2-methylbenzenesulfonamide], for which the ED50 in the experiment with β-Adrenergic was 0.08 mg/kg; in the experiment with α-Adrenergic (setting [3]), 0.27 mg/kg.

In the case of `Cc1ccc(C(O)CNC(C)CCc2ccccc2)cc1S(N)(=O)=O.Cl` (stereo not drawn) [Example 24, 5-[1-hydroxy-2-(1-methyl-3-phenylpropylamino)ethyl]-2-methylbenzenesulfonamide hydrochloride], in experiment [1], the “antihypertensive effect: change” value is -27 ± 6.1 mmHg.

`COc1ccc(C(O)CNC(C)CCc2ccccc2)cc1S(N)(=O)=O.Cl` (stereo not drawn) [Example 25, 5-[1-Hydroxy-2-(1-methyl-3-phenylpropylamino)ethyl]-2-methoxybenzenesulfonamide hydrochloride]: the ED50 in the experiment on β-Adrenergic worked out at 0.035 mg/kg; in the experiment on α-Adrenergic (setting [3]), 1.3 mg/kg.

With `C=CCOc1ccccc1OCCNCC(O)c1ccc(C)c(S(N)(=O)=O)c1.Cl` (stereo not drawn) [Example 18, 5-{2-[2-(2-Allyloxyphenoxy)ethylamino]-1-hydroxyethyl}-2-methylbenzenesulfonamide hydrochloride], the “antihypertensive effect: change” value in experiment [1] is -34 ± 5.2 mmHg.
